Tests used:
Assay in all cases: Post-emergence herbicidal action
Type in all cases: in vivo
[1] = tested on: AVEFA: Avena fatua; details: Table C2, post-emergence, dosage 320 (0.32 kg of active substance per hectare), rated visually after about 3 weeks
Protocol: (§1) [table] Seeds of monocotyledonous and dicotyledonous weeds and crop plants are placed in sandy loam in plastic or wood-fiber pots, covered with soil and cultivated in a greenhouse under controlled growth conditions. 2 to 3 weeks after sowing, the test plants are treated at the one-leaf stage. The compounds of the invention, formulated in the form of wettable powders (WP) or as emulsion concentrates (EC), are then sprayed onto the green parts of the plants as aqueous suspension or emulsion with addition of 0.5% additive at a water application rate of […] (converted). After the test plants had been kept in the greenhouse under optimum growth conditions for about 3 weeks, the activity of the preparations is rated visually in comparison to untreated controls. For example, 100% activity=the plants have died, 0% activity=like control plants.

[2] = tested on: LOLRI: Lolium rigidum; details: rated visually after about 3 weeks
Protocol: as §1

[3] = tested on: ECHCG: Echinochloa crus-galli; details: Table C2, post-emergence, dosage 320 (0.32 kg of active substance per hectare), rated visually after about 3 weeks
Protocol: as §1

[4] = tested on: AMARE: Amaranthus retroflexus; details: rated visually after about 3 weeks
Protocol: as §1

[5] = tested on: VERPE: Veronica persica; details: rated visually after about 3 weeks
Protocol: as §1

[6] = tested on: HORMU: Hordeum murinum; details: rated visually after about 3 weeks
Protocol: as §1

[7] = tested on: POLCO: Polygonum convolvulus; details: rated visually after about 3 weeks
Protocol: as §1

[8] = tested on: ALOMY: Alopecurus myosuroides; details: rated visually after about 3 weeks
Protocol: as §1

[9] = tested on: STEME: Stellaria media; details: Table C2, post-emergence, dosage 320 (0.32 kg of active substance per hectare), rated visually after about 3 weeks
Protocol: as §1

[10] = Table C2, post-emergence, dosage 320 (0.32 kg of active substance per hectare)
[11] = Table C4, post-emergence, 320 g/ha

| Compound | Herbicidal action against [%] AVEFA [1] [%] | Herbicidal action against [%] LOLRI [2, 10] [%] | Herbicidal action against [%] ECHCG [3] [%] | Herbicidal action against [%] AMARE [4, 10] [%] | Herbicidal action against [%] VERPE [5, 10] [%] | Herbicidal action against [%] HORMU [6, 10] [%] | Herbicidal action against [%] POLCO [7, 10] [%] | Herbicidal action against [%] ALOMY [8, 10] [%] | Herbicidal action against [%] STEME [9] [%] | Herbicidal action against [%] LOLRI [2, 11] [%] | Herbicidal action against [%] AMARE [4, 11] [%] | Herbicidal action against [%] VERPE [5, 11] [%] | Herbicidal action against [%] HORMU [6, 11] [%] | Herbicidal action against [%] POLCO [7, 11] [%] | Herbicidal action against [%] ALOMY [8, 11] [%] |
| --- | --- | --- | --- | --- | --- | --- | --- | --- | --- | --- | --- | --- | --- | --- | --- |
| COC(=O)C1CCC(NC(=O)C2(C(F)(F)F)CC(c3cc(F)c(F)c(F)c3)=NO2)C1 (mixture of isomers) [Example I-171] | 90 | 100 | 80 | 80 | 80 | 80 | 80 | 100 | 80 |  |  |  |  |  |  |
| CCOC(=O)C1CCC(NC(=O)C2(C(F)(F)F)CC(c3cc(F)c(F)c(F)c3)=NO2)C1 (mixture of isomers) [Example I-185] | 100 | 90 | 80 | 80 | 80 | 90 | 90 | 90 | 80 |  |  |  |  |  |  |
| O=C(O)C1CCC(NC(=O)C2(C(F)(F)F)CC(c3cccc(F)c3)=NO2)C1 (mixture of isomers) [Example I-311] | 100 | 100 | 100 | 90 | 90 | 100 | 100 | 100 | 100 |  |  |  |  |  |  |
| COC(=O)C1CCC(NC(=O)C2(C(F)(F)F)CC(c3cccc(F)c3)=NO2)C1 (mixture of isomers) [Example I-325] | 100 | 100 | 90 | 80 | 80 | 90 | 80 | 90 | 90 |  |  |  |  |  |  |
| CCOC(=O)C1CCC(NC(=O)C2(C(F)(F)F)CC(c3cccc(F)c3)=NO2)C1 (mixture of isomers) [Example I-339] | 100 | 100 | 100 | 100 | 90 | 100 | 100 | 100 | 100 |  |  |  |  |  |  |
| O=C(OCCCl)C1CCC(NC(=O)C2(C(F)(F)F)CC(c3cccc(F)c3)=NO2)C1 (mixture of isomers) [Example I-409] | 100 | 100 | 100 | 90 | 90 | 100 | 100 | 100 | 100 |  |  |  |  |  |  |
| O=C(OCC(F)(F)F)C1CCC(NC(=O)C2(C(F)(F)F)CC(c3cccc(F)c3)=NO2)C1 (mixture of isomers) [Example I-423] | 100 | 100 | 100 | 90 | 90 | 100 | 90 | 100 | 100 |  |  |  |  |  |  |
| Cc1cc(Cl)cc(C2=NOC(C(=O)NC3CCC(C(=O)OCCCl)C3)(C(F)(F)F)C2)c1 (mixture of isomers) [Example I-838] |  |  |  |  |  |  |  |  |  | 100 | 80 | 80 | 90 | 100 | 100 |
| Cc1cc(Cl)cc(C2=NOC(C(=O)NC3CCC(C(=O)OCC(F)(F)F)C3)(C(F)(F)F)C2)c1 (mixture of isomers) [Example I-844] |  |  |  |  |  |  |  |  |  | 90 |  | 90 | 80 | 100 | 100 |
| CC(C)(C)OC(=O)[C@H]1CC[C@@H](NC(=O)C2(C(F)(F)F)CC(c3cc(F)cc(F)c3)=NO2)C1 (relative stereo) [Example I-85, tert-butyl cis-3-({[3-(3,5-difluorophenyl)-5-(trifluoromethyl)-4,5-dihydro-1,2-oxazol-5-yl]carbonyl}amino)cyclopentanecarboxylate] |  |  |  |  |  |  |  |  |  | 90 | 80 | 80 | 90 |  | 90 |
| COC(=O)[C@H]1CC[C@H](NC(=O)C2(C(F)(F)F)CC(c3cc(F)cc(F)c3)=NO2)C1 (stereo partly drawn) [Example I-20, methyl (1S,3S)-3-({[3-(3,5-difluorophenyl)-5-(trifluoromethyl)-4,5-dihydro-1,2-oxazol-5-yl]carbonyl}amino)cyclopentanecarboxylate] |  |  |  |  |  |  |  |  |  | 90 | 80 | 90 | 90 |  | 80 |
| COC(=O)[C@H]1CC[C@H](NC(=O)[C@@]2(C(F)(F)F)CC(c3cc(F)cc(F)c3)=NO2)C1 [Example I-28] |  |  |  |  |  |  |  |  |  | 90 |  | 80 | 90 | 80 | 80 |

— US20200369630A1, “HERBICIDALLY ACTIVE 3-PHENYL-5-TRIFLUOROMETHYLISOXAZOLINE-5-CARBOXAMIDES OF CYCLOPENTYLCARBOXYLIC ACIDS AND ESTERS” (Bayer Aktiengesellschaft, priority 2017, published 2020)
